Measured values taken from patent US20260315499A1, “2'- {HETEROCYCLYL (ARYL/ALKYL) METHYL} - CANNABIDIOL COMPOUNDS AND PROCESS FOR PREPARATION THEREOF” (COUNCIL OF SCIENTIFIC & INDUSTRIAL RESEARCH, priority 2023, published 2026).

Legend:
[1] = Cell viability assay in differentiated neuronal cells (MTT), SHSY5Y; type: cell-based; conditions: human, read-out: % Cell viability ± SD, SHSY5Y
Text: (§1) In the present disclosure outlined herein, a focused library of cannabidiol analogues were studied for possible neuro-protective potential employing cell line-based stress model systems which mimic the biological stress conditions in vitro (J Cell Biochem., 2018, 119(8), 6482-6491).
(§2) Human neuroblastoma cells (SHSY5Y) and mouse neuroblastoma cells (N2A) were procured from American Type Culture Collection (ATCC). SHSY5Y cell cultures were maintained in DMEM F12 (Invitrogen) whereas N2A were cultured in DMEM (Invitrogen) with 10% Fetal Bovine Serum (Gibco) medium, subjected to differentiation to acquire neuronal morphology (employing differentiation media DMEM-F12, 3-5% FBS, (For differentiation, low concentration of FBS was used) and 50 μM retinoic acid). Differentiated cells were later seeded into 96 well plates, at a density of 1×10^4 before being incubated for 48 hrs with the synthesized library. The exhausted culture media was substituted with new culture media containing 0.5 mg/ml MTT dye. Eventually, the OD at 490 nm excitation was measured using a 96-well plate reader. The proportion of viable cells was determined as percentage of absorbance of untreated cultures relative to control.

[2] = Cell viability assay in macrophage RAW264.7 cells (MTT); type: cell-based; conditions: mouse, read-out: % cell viability ± SD; for viability at 24 h, 5 µM: RAW264.7, 5 μM; for viability at 24 h, 10 µM: RAW264.7, 10 μM
Experimental: RAW264.7 cells were seeded in 96-well cell culture plates at a density of 1×10^4 cells per well and incubated overnight at 37° C. with 5% CO2. Next day, the cells were treated with CBD or its derivatives at 5 μM and/or 10 μM concentration for 24 hrs. The MTT dye (2.5 mg/ml, 20 μL) was added to each well 4 hrs before termination (Molecules. 2022, 27, 8068). After 4 hrs of incubation with MTT, the supernatant was discarded, and the formazan crystals were dissolved by adding 100 μL DMSO. The absorbance was recorded at 540 nm on microplate reader (Tecan Infinite Pro).

[3] = test system: nitric oxide (NO) production in RAW264.7 macrophages; experiment: In vitro anti-inflammatory activity: nitric oxide production (Griess) in LPS-exposed RAW264.7 macrophages; type: cell-based, mouse; conditions: for inhibition at 5 µM / inhibition at 10 µM: Mus musculus, RAW264.7, read-out: % NO Inhibition ± SD; for inhibition at 5 µM / inhibition at 10 µM / % NO inhibition: LPS 24 hrs; for % NO inhibition: concentration not given
Experimental: Measurement of Nitric oxide: RAW264.7 macrophages were seeded in 96-well plates with a density of 0.5×10^5 cells/well and incubated overnight at 37° C. in a 5% CO2 atmosphere. The cells were treated with different concentration of CBD and its analogues and exposed to LPS for 24 hrs. For nitric oxide (NO) determination, the cell culture supernatant was taken and mixed with equal volume of Griess reagent in another 96 well plate at room temperature (Biomed Pharmacother., 2017, 92, 175-186). The absorbance was measured at 540 nm. The final calculations were determined on a NaNO2 standard curve.

[4] = Cell viability assay in differentiated neuronal cells (MTT), N2A; type: cell-based; conditions: mouse, read-out: % Cell viability ± SD, N2A
Text: as §1, §2

[5] = test system: p TrkB 816; experiment: Survival pathway protein expression by western blotting in SHSY5Y; type: cell-based, human; conditions: DHF 5 nM, 6 hrs
Experimental: (§3) Here, A1 was tested to find its role in eliciting survival pathway proteins in differentiated human neuroblastoma cells in concentration and time dependent manner.
(§4) To investigate the effect of A1 on the survival proteins, SHSY5Y cell cultures were treated with different concentrations for 6 hrs and analyzed for the expression of survival proteins, including p-Erk 44/42, p-AKT 473, Anti BDNF, and p TrkB 816 and p TrKB 515 by western blotting.

[6] = test system: p TrkB 515; experiment: as above; type: cell-based, human; conditions: DHF 5 nM, 6 hrs
Experimental: as §3, §4

[7] = test system: p-Erk 44/42; experiment: as above; type: cell-based, human; conditions: 6 hrs
Experimental: as §3, §4

[8] = test system: Anti BDNF; experiment: as above; type: cell-based, human; conditions: 6 hrs
Experimental: as §3, §4

[9] = test system: p-AKT 473; experiment: as above; type: cell-based, human; conditions: 6 hrs
Experimental: as §3
To investigate the effect of A1 on the survival proteins, […] of survival proteins, including p-Erk 44/42, p-AKT 473, Anti BDNF, and p TrkB 816 and p TrKB 515 by western blotting.

[10] = test system: p TrkB 515; experiment: as above; type: cell-based, human; conditions: DHF/Cort., 6 hrs
[11] = test system: p TrkB 816; experiment: as above; type: cell-based, human; conditions: DHF/Cort., 6 hrs
[12] = test system: differentiated SHSY5Y cell cultures; experiment: Neuroprotective potential in differentiated SHSY5Y after 96 hrs, concentration series with and without corticosterone; type: cell-based, human; conditions: DHF 5 nM, without Cort, 96 hrs
[13] = test system: differentiated SHSY5Y cell cultures; experiment: as above; type: cell-based, human; conditions: DHF 5 nM + Cort 400 μM, 96 hrs
Text: Furthermore, A1 intervention in presence of corticosterone evidenced neuroprotective effect against corticosterone induced impairment and cell death.

Compound	viability at 48 h, 20 µM [1] [%]	viability at 24 h, 5 µM [2] [%]	viability at 24 h, 10 µM [2] [%]	inhibition at 5 µM [3] [%]	inhibition at 10 µM [3] [%]	viability at 48 h, 20 µM [4] [%]	other results
C=C(C)[C@@H]1CCC(C)=C[C@H]1c1c(O)c(CN2CCOCC2)c(CCCCC)c(CN2CCOCC2)c1O [A1′, 2′,4′-{bis-(morpholin-1-ylmethyl)}-cannabidiol]	93.6 ± 2.01	94.4 ± 0.9	92.4 ± 1.2	15.6 ± 2.5	23.4 ± 3.8	94.7 ± 1.86	% NO inhibition [3]: greater than 20%
C=C(C)[C@@H]1CCC(C)=C[C@H]1c1c(O)cc(CCCCC)c(CN2CCCCC2)c1O [A2, 2′-(piperidin-1-ylmethyl)-cannabidiol]	95.8 ± 1.1	65.9 ± 6.5	61.7 ± 8.1			96.9 ± 3.77	
C=C(C)[C@@H]1CCC(C)=C[C@H]1c1c(O)cc(CCCCC)c(CN2CCC(C(C)C)CC2)c1O [A3, 2′-{(4-isopropylpiperidin-1-yl)methyl}-cannabidiol]	103 ± 2.25	92.8 ± 0.9	89.9 ± 1.2	4.9 ± 1.4	10.7 ± 2.1	99.7 ± 0.42	
C=C(C)[C@@H]1CCC(C)=C[C@H]1c1c(O)cc(CCCCC)c(CN2CCC(O)CC2)c1O [A4, 2′-{(4-hydroxypiperidin-1-yl)methyl}-cannabidiol]	97.28 ± 0.54	93.8 ± 1.14	90.6 ± 0.7	11.4 ± 2.9	20.8 ± 2.5	97.71 ± 0.81	% NO inhibition [3]: greater than 20%
C=C(C)[C@@H]1CCC(C)=C[C@H]1c1c(O)cc(CCCCC)c(CN2CCC(c3ccccc3)CC2)c1O [A5, 2′-{(4-phenylpiperidin-1-yl)methyl}-cannabidiol]	94.5 ± 1.12	94.4 ± 1.3	90.4 ± 0.9	5.8 ± 2.4	12.3 ± 3.1	90.6 ± 1.85	
C=C(C)[C@@H]1CCC(C)=C[C@H]1c1c(O)cc(CCCCC)c(CN2CCC(C(F)(F)F)CC2)c1O [A6, 2′-[{4-(trifluoromethyl)piperidin-1-yl}methyl]-cannabidiol]	27 ± 2.02	94.1 ± 1.8	92 ± 1.1	7.6 ± 3	11.8 ± 1.9	25.3 ± 1.47	
C=C(C)[C@@H]1CCC(C)=C[C@H]1c1c(O)cc(CCCCC)c(CN2CCC(Cc3ccccc3)CC2)c1O [A7, 2′-{(4-benzylpiperidin-1-yl)methyl}-cannabidiol]	102 ± 1.57	90.1 ± 1.3	93 ± 1.7	8.4 ± 3.1	16 ± 1.2	101.7 ± 0.47	
C=C(C)[C@@H]1CCC(C)=C[C@H]1c1c(O)cc(CCCCC)c(CN2CCN(C)CC2)c1O [A8, 2′-{(4-methylpiperazin-1-yl)methyl}-cannabidiol]	89.4 ± 1.7	94.7 ± 2.7	87.1 ± 1.9	10.7 ± 2.3	19.6 ± 3.2	93.3 ± 0.39	
C=C(C)[C@@H]1CCC(C)=C[C@H]1c1c(O)cc(CCCCC)c(CN2CCN(CC)CC2)c1O [A9, 2′-{(4-ethylpiperazin-1-yl)methyl}-cannabidiol]	91.67 ± 0.56	94.2 ± 2.1	87.6 ± 0.1	14.6 ± 3.3	27.9 ± 0.4	94.3 ± 1.3	% NO inhibition [3]: more than 25%
C=C(C)[C@@H]1CCC(C)=C[C@H]1c1c(O)cc(CCCCC)c(CN2CCN(CCO)CC2)c1O [A10, 2′-[{4-(2-hydroxyethyl)piperazin-1-yl}methyl]-cannabidiol]	98.1 ± 2.25	97.5 ± 1.7	95 ± 2.6	48.9	68.3	96 ± 2.17	
C=C(C)[C@@H]1CCC(C)=C[C@H]1c1c(O)cc(CCCCC)c(CN2CCN(C(C)=O)CC2)c1O [A11, 2′-[{4-(piperazin-1-yl)ethan-1-one}methyl]-cannabidiol]	101 ± 3.48	93.3 ± 0.4	91.6 ± 0.2	15.6 ± 1.7	31.4 ± 3.6	102 ± 1.53	% NO inhibition [3]: more than 25%
C=C(C)[C@@H]1CCC(C)=C[C@H]1c1c(O)cc(CCCCC)c(CN2CCN(c3ccccc3)CC2)c1O [A12, 2′-{(4-phenylpiperazin-1-yl)methyl}-cannabidiol]	95.9 ± 3.39	94.5 ± 1	92.7 ± 0.5	8.6 ± 0.93	11.4 ± 3.5	96.2 ± 2.32	
C=C(C)[C@@H]1CCC(C)=C[C@H]1c1c(O)cc(CCCCC)c(CN2CCN(C3CC3)CC2)c1O [A13, 2′-{(4-cyclopropylpiperazin-1-yl)methyl}-cannabidiol]	96.2 ± 4.87	89.3 ± 2	93.9 ± 4.3	12 ± 1.7	27.3 ± 2.6	97.2 ± 3.51	% NO inhibition [3]: more than 25%
C=C(C)[C@@H]1CCC(C)=C[C@H]1c1c(O)cc(CCCCC)c(CN2CCN(c3ccc(Cl)cc3)CC2)c1O [A14, 2′-[{4-(4-chlorophenyl)piperazine}methyl]-cannabidiol]	90.5 ± 0.14	95.2 ± 0.7	89.8 ± 1.1	8.5 ± 1.7	14.2 ± 3.8	95.9 ± 4.04	
C=C(C)[C@@H]1CCC(C)=C[C@H]1c1c(O)cc(CCCCC)c(CN2CCN(c3ncccn3)CC2)c1O [A15, 2′-[{4-(pyrimidin-2-yl)piperazin-1-yl}methyl]-cannabidiol]	81.8 ± 1.17	93.4 ± 1.1	89.9 ± 0.9	4.8 ± 0.02	14.5 ± 0.6	85.2 ± 1.25	
C=C(C)[C@@H]1CCC(C)=C[C@H]1c1c(O)cc(CCCCC)c(CNc2cnccn2)c1O [A16, 2′-{(pyrazin-2-ylamino)methyl}-cannabidiol]	86.97 ± 0.12	93.6 ± 1.3	87.7 ± 0.8	11.5 ± 1.2	18.3 ± 1	89.85 ± 0.03	
O=c1cc(-c2ccccc2)oc2c(O)c(O)ccc12 [DHF, reference compound]							Relative Protein Expression p TrkB 816 [5]: 1.55; Relative Protein Expression p TrkB 515 [6]: 2.43; Relative Protein Expression p ERK 44/42 ([7]; DHF 5 nM): 5.28; Relative Protein Expression p ERK 44/42 ([7]; DHF/Cort.): 5.00; Relative Protein Expression Anti BDNF ([8]; DHF 5 nM): 1.03; Relative Protein Expression Anti BDNF ([8]; DHF/Cort.): 0.53; Relative Protein Expression PAKT 473 ([9]; DHF 5 nM): 1.42; Relative Protein Expression PAKT 473 ([9]; DHF/Cort.): 0.96; Relative Protein Expression p TrkB 515 [10]: 2.11; Relative Protein Expression p TrkB 816 [11]: 0.71; Cell viability [12]: 113.7; Cell viability [13]: 104.3
Lipopolysaccharide [LPS, reference compound]							% NO Inhibition ± SD ([3]; LPS alone 1 μg/ml (0% reference)): 0%
